Source: patent US12692463B2, “Blends of alcohol ethoxylate and methyl ester sulfonate in unit dose products for improved mildness” (Henkel AG & Co. KGaA, priority 2023, dated 2026)

Test: Percent swelling of water-soluble film strips submerged in detergent formula
Assay type: physicochemical
Details: Minitab mixture regression on solvent component proportions, Formulas 7-16
Description: The term % swelling as used in the present application means the percent increase or decrease in weight, for example the weight of a pouch strip, such as a polyvinyl alcohol strip, following submersion in a detergent composition for a given period of time, for example twenty-four hours (hr). The % swelling is calculated as described in the examples by taking a post-soaking weight, subtracting an initial, pre-soaking weight, and dividing by the initial, pre-soaking weight. To measure the percent (%) swelling, a fresh sheet of film was traced and cut into three identical film strips (3 cm wide by 8.5 cm long) for each formula being tested. Strips were labeled #1, #2, and #3 and placed into a tared petri dish one by one, recording the weights of each piece of film individually. Strips #1 and #2 were placed parallel to one another on the bottom of the petri dish and strip #3 was laid perpendicularly over strips #1 and #2. The petri dish was then filled half way, ensuring all film strips were submerged in the formula being tested. The petri dish was wrapped with parafilm, sealing around the edge of the petri dish. […] The cleaned film strip #3 was placed into a clean, tared petri dish lid, and the final weight of the film strip was recorded. […] Percent (%) swelling ratios were determined for Formulas 7-16 using polyvinyl alcohol (PVA) strips. […]

SMILES: OCC(O)CO [Glycerin]
- estimated regression coefficient for % swelling: 0.8037

SMILES: CC(O)CO (centres unmarked) [PG, Propylene Glycol]
- estimated regression coefficient for % swelling: 0.4263
